Data: PMC5341405, “Lapachol, a compound targeting pyrimidine metabolism, ameliorates experimental autoimmune arthritis” (Arthritis Research & Therapy, 2017)

Columns and labels:
murine CD4 T cells = assay: Proliferation assay of murine CD4 T cells (dye dilution, flow cytometry); format: cell-based, C57BL/6 mice
From the text: Human CD4 T cells were purified from the whole blood of healthy volunteers. Briefly, peripheral blood mononuclear cells (PBMCs) were isolated by Percoll gradient (Sigma-Aldrich, St. Louis, MO, USA). CD4 T cells were isolated from PBMCs using Isolation Kit (Miltenyi Biotec, Bergisch Gladbach, Germany). For murine CD4 T cells, lymph nodes from naive C57BL/6 male mice were harvested, and CD4 T cells were purified using Isolation Kit (Miltenyi Biotec, Bergisch Gladbach, Germany) according to the manufacturer’s recommendations.
A total of 1 × 10^5 CD4 T cells were labeled with 1 μM Dye Efluor® 670 (eBioscience, San Diego, CA, USA) for 15 min at 37 °C and cultured in RPMI-1640 10% FBS for 4 days in a 96-well U-bottom plate (Falcon, Franklin Lakes, New Jersey, USA) with the LAP salt diluted in RPMI-1640 (10, 30, and 100 μM), LEF diluted in RPMI-1640 (10, 30, and 100 μM; Arava®, Sanofi, France) and/or uridine (30, 100, and 300 μM; Sigma-Aldrich, St. Louis, MO, USA) in the presence of anti-CD3 (3 μg/ml) and anti-CD28 (1.5 μg/ml). The proliferation of CD4 T cells was determined by dye dilution in flow cytometry analysis. The results were expressed as the percentage of suppression using the following formula: [proliferation of CD4 T cells only – (proliferation of T CD4 cells with LEF or LAP)/proliferation of CD4 T cells only] × 100.

[1] = tested on: antigen-induced arthritis (AIA) in C57BL/6 mice; assay: Antigen-induced arthritis (AIA); format: in vivo
human keratinocytes = tested on: human keratinocytes; design: method as in PMID 10479319; conditions: in vitro; cited from earlier work
[2] = 10 mg/kg orally, recall with mBSA 100 μg/ml for 96 h

Q: What does the source list for CC(C)=CCC1=C(O)C(=O)c2ccccc2C1=O [LAP, 2-hydroxy-3-(3methyl-2-butenyl)-1,4-naphthoquinone]?
A: effect on proliferation of murine CD4 T cells (murine CD4 T cells; 10, 30, and 100 μM, 4 days, anti-CD3/CD28): inhibited the proliferation of murine CD4 T cells in a dose-dependent manner; suppression of proliferation compared with LEF (murine CD4 T cells; murine CD4 T cells, same equivalent concentrations): greater ability to suppress the proliferation; leucocyte infiltration into the knee joint ([1]; 10 mg/kg orally once a day over 9 days, 6 h after mBSA challenge): remarkable reduction in leucocyte infiltration; serum levels of anti-mBSA total IgG ([1]; 10 mg/kg orally once a day over 9 days, day 21): did not find differences; mBSA-specific production of IFN-γ by draining lymph node cells and splenocytes [1, 2]: significantly reduced; mBSA-specific production of IL-17 by draining lymph node cells and splenocytes [1, 2]: significantly reduced; proliferation of human keratinocytes (human keratinocytes): can reduce proliferation of the human keratinocytes
